Series [1] concerns HIF. The series can be described thus: HIF reporter assay (HIF-activity-dependent Firefly-Luciferase) in NIH3T3 cells with CoCl2. Type of series: cell-based, mouse. The note with it: for cytotoxicity (endogenous control CMV-Renilla-Luciferase activity): CoCl2; for HIF activity (HIF inhibitory activity): CoCl2 200 μM, luminescence 24 hours after CoCl2. The procedure:
(§1) The HIF-activity-dependent Firefly-Luciferase and endogenous control CMV-Renilla-Luciferase were both transgenic into mouse fibroblast cell line (NIH3T3) and mouse retinal […] cell line (661 W) using lentiviruses to generate stable expression lines. HIF can be stabilized by adding cobalt chloride (CoCl2), a PHD inhibitor, to the cells, and luciferin can be added to obtain a luminescent signal correlating with HIF activity. Samples of various natural products were added to the cells to confirm the HIF inhibitory effect of the candidate on cobalt chloride-induced HIF activity.
(§2) Specifically, 1×10^4 of NIH3T3 cells and 0.8×10^4 of 661 W cells were seeded on a 96-well plate with the above cell lines. After cells were engrafted to the bottom of the plate, HIF-activity was induced by adding CoCl2 at 200 μM. The luminescence strength was measured 24 hours after the CoCl2 was added using a Dual-Glo Luciferase assay system manufactured by Promega Corporation. The candidates were added at the same time as the of the CoCl2.
A general note: In a reporter assay the amount or activity of a reporter protein is the signal.

For series [2], the system named is HIF. The series can be described thus: HIF reporter assay (HIF-activity-dependent Firefly-Luciferase) in 661W cells with CoCl2. Type of series: cell-based, mouse. To be noted: for cytotoxicity (endogenous control CMV-Renilla-Luciferase activity): CoCl2; for HIF activity (HIF inhibitory activity): CoCl2 200 μM, luminescence 24 hours after CoCl2. The protocol: as §1, §2

For series [3], the system named is mouse ganglion cell disorder model. The note with it: vitreous administration of N-methyl-D-aspartic acid; previously reported by the inventors; cited from earlier work.
In series [4] the test system is Mouse Retinal Photoinjury Model. Briefly: Mouse retinal photoinjury model, electroretinography. Format: in vivo, BALB/c mice. The note with it: 0.4 mg/kg intraperitoneally once daily for 5 days, white LED 3000 lux 1 hour, compared with PBS group. The procedure: First, 0.4 mg/kg of halofuginone solution dissolved in PBS was administered intraperitoneally once daily to BALB/c mice 8 weeks old for 5 consecutive days (halofuginone group; n=4). The control group received the same amount of PBS (phosphate buffered saline) intraperitoneally (n=4) for the same period of time. Dark adaptation was performed on day 4 of the above period and then on day 5 a white LED of 3000 lux was irradiated for 1 hour. Dark adaptation was performed on day 6 after the light irradiation, and electroretinography was performed on day 7.

For series [5], the system named is glut1 gene. The series can be described thus: Real-time PCR gene expression in 661W cells with CoCl2. Format: cell-based, mouse. To be noted: CoCl2 200 μM, four hours after adding halofuginone. The protocol: (§3) In the system of 661W cells to which the CoCl2 was added, the expression levels of the respective genes were measured in order to examine the inhibitory effects of halofuginone on the hif gene induced by the CoCl2 and the bnip3 gene, glut1 gene, pdk1 gene, and vegf gene which are the downstream genes. The expression level was measured by Real-time PCR. Specifically, 3×10^4 of 661 W cells were seeded on a 24-well plate, and CoCl2 was added at a density of 200 μM after cell immobilization. Halofuginone was added at the concentrations shown in FIG. 14 simultaneously with CoCl2. Four hours after adding halofuginone, RNAs were extracted, cDNA was synthesized, and then Real-time PCR was performed to determine the expression levels of the respective genes.
For orientation: In qPCR the cycle at which signal appears reflects the starting amount.

For series [6], the system named is pdk1 gene. The series is described as above. Type of series: cell-based, mouse. The note with it: CoCl2 200 μM, four hours after adding halofuginone. The protocol: as §3
Series [7] has as its system bnip3 gene. Described as above. Type of series: cell-based, mouse. To be noted: CoCl2 200 μM, four hours after adding halofuginone. The protocol:
as §3

Series [8] concerns Mouse Retinal Ischemia-Reperfusion Model. The series can be described thus: Mouse retinal ischemia-reperfusion model, visual evoked potential (VEP). Format: in vivo, C57BL6J mice. The note with it: 0.2 mg/kg intraperitoneally, 1 Hz flashing light 3 cds/m^2. The procedure:
(§4) First, 0.2 mg/kg of halofuginone solution dissolved in PBS was administered intraperitoneally once daily to C57BL6J mice 8 weeks old (male; manufactured by Crea Japan) for 7 consecutive days (Halofuginone group; n=4). The control group received the same dose of PBS intraperitoneally for the same period (n=4).
(§5) Retinal ischemia reperfusion treatment was then performed as follows.
(§6) Nine-week-old mice were administered intraperitoneal anesthetics (three mixtures: medetomidine 0.75 mg/kg, midazolam 4 mg/kg, and butorphanol 5 mg/kg; hereinafter referred to as “MMB”). At the same time as anesthesia, Midrin P ophthalmic solution (Santen Pharmaceutical Co., Ltd.) was used to dilate both eyes.
(§7) The physiological saline infusion bags were fixed at a height of 1.5 m from the laboratory table, inserted into the anterior chamber of the right eye of the mice with 35 G needles perfused with physiological saline, and perfusion was started. Intraocular pressure was measured every 5 minutes (Tonolab hand-held tonometer; manufactured by icare Corporation) to confirm that intraocular pressure was maintained at 85-99 mm Hg. […]
The VEPs of the same individuals were then measured continuously. […]
Differences (P1-N1) from each first negative crest to the next positive crest were measured as amplitudes, and latencies were also measured, and the mean of two times was evaluated as the value of one individual.

Series [9] shares this test system. Briefly: Mouse retinal ischemia-reperfusion model, optical coherence tomography (OCT). Format: in vivo, C57BL6J mice. To be noted: 0.2 mg/kg intraperitoneally, radius 250 μm from optic nerve head. The procedure: as §4, §5, §6, §7
The entire thickness of the retina was evaluated using OCTs in order to measure the total thickness of the retina in the In vivo.
Mice were fixed under MMB anesthesia and the total retinal thickness centered on the optic papilla was measured. […]

For series [10], the system named is HIF. The series can be described thus: HIF reporter assay in ARPE19 cells with CoCl2. Format: cell-based. The protocol: as §1, §2
Halofuginone, a halogenated derivative of ferbrifudine in Hydrangea macrophylla, was used as a sample to measure HIF activity on 661W cells, 3T3 cells, or ARPE19 cells in the assays described above. […] In FIGS. 11 to 13, “CoCl2+HF” indicates a system in which CoCl2 are added to the cells. […]

Regarding `COc1cccc2c1C(=O)c1c(O)c3c(c(O)c1C2=O)C[C@@](O)(C(=O)CO)C[C@@H]3O[C@H]1C[C@H](N)[C@H](O)[C@H](C)O1` [doxorubicin], the “cytotoxicity (endogenous control CMV-Renilla-Luciferase activity)” value in [1] and in series [2] was “without cytotoxicity” each time. For the same compound, the “HIF activity (HIF inhibitory activity)” value in series [1] and in series [2] was “significantly decreased” throughout.

With `O=C(C[C@@H]1NCCC[C@H]1O)Cn1cnc2cc(Br)c(Cl)cc2c1=O` [halofuginone], the neuroprotective effect entry in series [3] is recorded as “neuroprotective effect”. In addition, the “electroretinography amplitude (dark-adapted and light-adapted)” value in series [4] is reported as “decrease in amplitude was suppressed”. Besides, the “expression level of the glut1 gene” value in series [5] is given as “decreased”. For the same compound, the “expression level of the pdk1 gene” value in series [6] is “decreased”. The “expression level of the bnip3 gene” value in series [7] is given as “decreased”. Besides, the “HIF activity (HIF inhibitory activity)” value in [1], in [2] and in series [10] was “significant level-dependent HIF inhibitory activity” each time. For the same compound, in series [8], the “VEP amplitude (P1-N1)” value was 92±10.9 μV. The “total thickness of the retina by OCT” value in [9] was 251.9±7.2 μm.

On to `CC[C@@]1(O)C(=O)OCc2c1cc1n(c2=O)Cc2cc3c(CN(C)C)c(O)ccc3nc2-1` [topotecan], for which the “cytotoxicity (endogenous control CMV-Renilla-Luciferase activity)” value in series [1] and in [2] was “without cytotoxicity” throughout.
